# Results reported in patent US12533425B2, “Methods and systems using peptides for targeting and mapping human nerves in image guided surgery, diagnostics and therapeutic delivery” (ALUME BIOSCIENCES, INC., priority 2019, dated 2026).
# “Also recorded” adds a separate entry of the source. Residues, ends and D or L forms follow the SMILES beside them. No end group written: not given here. *: point of attachment. Fluorescein(5-Mal) = O=C1OC2(c3ccc(O)cc3Oc3cc(O)ccc32)c2ccc(N3C(=O)CC(*)C3=O)cc21
# Assays:
# [1] = tested on: bladder fluorescence; assay: In-vivo quenching of FAM-NP41 bladder fluorescence; design: species or system mouse; conditions: 50 mg/kg i.v. plus 30 μl 10 mM intra bladder, 150 nmoles FAM-NP41 2 hours prior
# Description: (§1) FIGS. 21A-21C: Food dyes efficiently quench FAM-NP41 bladder fluorescence. A fluorescent plate reader assay was used to show dose dependent quenching of FAM-NP41 fluorescence. Erythrosine extra bluish (Santa Cruz Biotechnology, Inc.) was the most efficient quencher with >˜80% quenching at 2.5 times dye to fluorescein ratio and >95% quenching at 5× dye to fluorescein ratio (A). Other food dyes tested included Allura Red and Sunset Yellow. To test for quenching in-vivo we administered, by direct iv injection, 50 mg/kg MW 879.76 (˜1.5 μmoles per 25 gm mouse) to mice that had been injected with 150 nmoles of FAM-NP41 2 hours prior. This represents approximately a 10× dye to FAM-NP41 dose. Some bladder fluorescence remained after imaging so additional dye (30 μl, 10 mM Erythrosin extra bluish) was injected directly into the bladder. […] Dye would likely not be needed if this method was used for human patients as bladder catheterization in patients could be started as FAM-NP41 is administered so bladder fluorescence could be washed out.
# [2] = Fluorescent plate reader assay of quenching of FAM-NP41 fluorescence by food dyes
# Description: as §1
# [3] = tested on: mouse facial nerve; assay: Topical application on ex-vivo mouse facial nerve with surrounding muscle; assay type: binding; conditions: topical 375 and 100 μM, ex-vivo tissue
# [4] = tested on: sciatic nerve; assay: In-vivo fluorescence imaging of sciatic nerve in mice after i.v. injection of FAM-labelled peptides; design: species or system mouse; conditions: 450 nmols i.v.
# Protocol: In-vivo fluorescence image of sciatic nerve of 6 month old SKH1-Elite mice injected i.v. with 450 nmols of FAM-HNP401 (A) or FAM-NP41 (B) and imaged on the Lumar imaging scope 2 h post injection. […] Each mouse was injected i.v. with 100 nmol of FAM-HNP401 prior to blood collection at 1 min, 10 min, 20 min, 30 min, 1 h and 2 h timepoints (H).
# In-vivo fluorescence image of sciatic nerves from 6 month old SKH1 mice that had been previously intravenously injected with 450 nmols of FAM-HNP401 [˜48.4 mg/kg] (A) or FAM-NP41 [˜39 mg/kg] (B). […] Each mouse was injected intravenous with 100 nmol [˜11 mg/kg] of FAM-HNP401 prior to blood collection at 1 min, 10 min, 20 min, 30 min, 1 h and 2 h time points.
# [5] = tested on: autonomic nerves isolated from human prostate glands; assay: Topical application on sections of nerves from human prostate gland; assay type: binding; conditions: topical 100 μM, 10 μm sections, two patients
# Protocol: FAM-HNP401 and FAM-NP41 were then tested topically for binding to autonomic nerves, isolated from excised prostate glands of two human patients (FIGS. 12 and 13). […] Labelled fiber were confirmed as nerve using anti-neurofilament antibody SMI312 (red) and DAPI (blue) to show nuclear labeling (FIG. 12C). H&E staining was also done to confirm label tissue as nerve (FIG. 12D). Similar staining was obtained for peripheral sensory anti-brachial cutaneous nerve isolated from a human arm (FIG. 12E-H).
# FAM-HNP401 and FAM-NP41 were tested for binding to autonomic nerves, isolated from the prostate glands of two human patients (FIGS. 19 and 29). […] Quantitation was not done because only 2 patient samples were available for testing as nerve resection during radical prostatectomy is only performed in instances of gross capsular invasion. Labelled fibers were confirmed as nerve using anti-neurofilament antibody SMI312 (red) with DAPI (blue) to show nuclear labeling (FIG. 19C). H&E staining also confirmed label tissue as nerve by histology (FIG. 19D). […] Similar staining using FAM-HNP401 was obtained for another sensory nerve (anti-brachial cutaneous) isolated from human arm showing the broad nerve binding activity of HNP401 (FIGS. 19E-H).
# [6] = Mass spectroscopy analysis of urine after injection of nerve binding peptides
# [7] = Stability of peptides in ex-vivo human plasma (LC-MS); conditions: 37° C., 5 min vs 2 hours
# Protocol: FIGS. 28A-28F: Stability of peptides in ex-vivo human plasma and cerebrospinal fluid from rats. […] An equal volume of 1:1 acetonitrile:water with 2% acetic acid is added to precipitate the protein matter, supernatant is extracted for analysis by LC-MS on a C18 reverse phase column with gradient of 9:1 H2O+0.05% TFA:Acetonitrile+0.05% TFA to 1:9 H2O+0.05% TFA:Acetonitrile+0.05% TFA in 20 min.
# The bladder was drained with a syringe and sutured to avoid spillage and contamination around prostate. […] Stability of FAM-HNP401 in human plasma at 5 minutes and 2 hours was determined by incubation of peptide dye conjugate in human serum prior to analysis by mass spectrometry.
# [8] = tested on: human sural nerve; assay: Topical application of FAM-labelled peptides on sections of human sural nerve and temporalis muscle; assay type: binding; conditions: for nerve binding and nerve to muscle contrast (words): human nerve and temporalis muscle sections; for normalized average signal intensity for nerve binding: normalized to parent FAM-HNP401, topical 100 μM, human sural nerve sections; for effect of truncation on binding and solubility: deletion from C terminus of HNP401
# Description: To determine the affinity of phage selected peptides for binding to human nerve they were chemically synthesized by solid-phase synthesis and labeled with fluorescein at the C-terminus via a GGC linker. Peptides were topically applied to sectioned human sural nerve and human temporalis muscle to determine nerve to muscle contrast. […] To confirm binding and contrast of HNP401 for additional nerve types binding was compared in nerve and muscle with both HNP401 and NP41 on facial brachial plexus nerve (FIG. 9). […] FAM-HNP401 was additionally tested topically on ex-vivo tissue for labeling of mouse facial nerve with surrounding muscle (FIG. 10, J-M).
# To test the affinity of selected phage display peptides for binding to human nerves, they were chemically synthesized by solid-phase synthesis and labeled with fluorescein at the C-terminus. Peptides were topically applied to sections of surgically harvested human sural nerve and temporalis muscle to determine nerve to muscle contrast for selected peptides and controls (FIG. 23). […] To quantify differential binding to nerve versus muscle, fluorescence signal intensity was measured for ROIs from the perineurium of select nerves and human temporalis muscle.
# To enhance and attempt to determine the core binding domain of HNP401, systematic deletion of two amino acids from the C or N terminus was performed (see, for example, FIG. 30) followed by binding analysis on human sural nerve sections (FIG. 20). In each case nerve binding and signal intensity was normalized to the parent FAM-HNP401 peptide (FIG. 20J).
# Image J was used to analyze and compare images acquired using the confocal microscope and the Lumar dissecting scope. For each experimental set where probes were compared, we kept the acquisition parameters identical so as to directly compare the data obtained. […] All raw image files for a given experimental cohort were loaded at the same time into Image J as 16-bit tiff images. We then levelled the image for tissue treated with FAM-HNP401. Once these levels were set, the settings are propagated to all images in one step using Image J. The brightest image is set as the benchmark for all other images in the cohort to avoid saturating when the leveling is propagated.
# [9] = tested on: human laryngeal nerve sections; assay: Dose response of FAM-HNP401 by topical application on human nerve sections, confocal; conditions: low concentration (10 μM)
# Protocol: Determination of optimal dose response by topical application of FAM-HNP401 on human laryngeal nerve sections at final concentration of 375 μM (A), 100 μM (B), 50 μM (C), 10 μM (D) and 1 μM (E), imaged with confocal microscopy with identical parameters and levelled equally for comparison. **brightened 2 fold for viewing.
# Dose response data set of FAM-HNP401 on human nerve tissue (FIGS. 25:A-E) was acquired with 488 nm laser line, 10 μm sections on glass at 10× magnification, 0.45 NA air objective lens. Gain set to 40, power set to 3% of laser power, pixel dwell value of 1.2 μs, aperture size of 1.1 μm and a pixel size of 0.3 μm/px with a 2 k by 2 k size image.
# Human peripheral nerves (typically sural) were obtained from patients undergoing nerve resection procedures. Human nerves from prostate gland of two patients were acquired under Moores Cancer Centre Biorepository IRB protocol number 090401. Tissue were sectioned and mounted on glass slides or Cryojane tape. Tissue sections were placed in a humidifier chamber for 30 min before application of the peptide solution. Peptides were diluted to appropriate concentration in 0.5×HBSS prior to topical application. 50 μl of peptide solution of with known concentration (1 μM to 375 μM) were applied to 10 μm nerve sections on tape or slides and incubated for 30 minutes in a humidifier chamber. After incubation with peptide nerve sections were washed with twice with 0.5×HBSS and once with 1×PBS. A cover-slip was applied and slides were imaged immediately on either a Zeiss Lumar dissecting scope of Nikon A1 confocal microscope. For confocal imaging tissue sections of 10 μm thickness were imaged with 488 nm laser excitation 515 (25) and a 10× air objective and a 0.26 µm/pixel size.
# [10] = tested on: rat prostate cavernosal nerve; assay: In-vivo labelling of rat prostate and sciatic nerve; conditions: i.v., FAM-labelled peptide
# Protocol: FIG. 6: Fluorescent labeling of rat prostate cavernosal nerve in live rats.
# Either 150 or 450 nmoles nmoles of fluorescein labeled synthetic peptides were injected intravenously into mice. After a 2 hour waiting period for washout of nonspecific binding, mice were anesthetized and skin incisions were made over the dorsal surface of the hind legs to expose the sciatic nerve. Brightfield and fluorescent images were obtained with a dissecting microscope using Metamorph software (FIG. 1). Quantitation of fluorescence of nerves and adjacent non-nerve tissue was performed with Image J (FIG. 2). Peptides were also topically applied to human nerve sections. […]
# Following anesthesia with intra-peritoneal injection of ketamine (80 mg/kg) and midazolam (40 mg/kg), FAM-NP41 or its variants were administered into mice retro-orbitally. […] The autonomic nerve along the cavernosal vessel in the prostate was imaged and recorded using a custom-made surgical imaging system. This system is a modified from Olympus MVX10 scope capable of hi-resolution fluorescence, RGB reflectance and realtime overlay with zoom from 0.6 to 5.7 cm field of view. ImageJ was used for quantitative analysis of nerve contrast for each peptide dye conjugate tested. Images of autonomic nerve in prostate were selected from the recorded files and magnified 300-400% prior to selection of ROI and measurement. […]
compound,measurement,setting,value
O=C1OC2(c3ccccc31)c1cc(I)c(O)c(I)c1Oc1c2cc(I)c(O)c1I [Erythrosine extra bluish],bladder fluorescence after quencher,[1],near background level
same,quenching of FAM-NP41 fluorescence,[2]; 2.5 times dye to fluorescein ratio,> 80%
same,quenching of FAM-NP41 fluorescence,[2]; 5× dye to fluorescein ratio,> 95%
CC(=O)N[C@@H](CO)C(=O)NCC(=O)N[C@@H](CCC(N)=O)C(=O)N[C@H](C(=O)N1CCC[C@H]1C(=O)N[C@@H](Cc1c[nH]c2ccccc12)C(=O)N[C@@H](CCC(=O)O)C(=O)N[C@@H](CCC(=O)O)C(=O)N1CCC[C@H]1C(=O)N[C@@H](Cc1ccc(O)cc1)C(=O)N[C@@H](Cc1ccc(O)cc1)C(=O)N[C@H](C(=O)N[C@H](C(=O)N[C@@H](CCCCN)C(=O)N[C@@H](CCCCN)C(=O)N[C@@H](CO)C(=O)N[C@@H](CO)C(=O)NCC(=O)NCC(=O)N[C@@H](CSC1CC(=O)N(c2ccc3c(c2)C(=O)OC32c3ccc(O)cc3Oc3cc(O)ccc32)C1=O)C(N)=O)C(C)C)C(C)C)C(C)C (stereo partly shown) [FAM-HNP401] (Ac-SGQVPWEEPYYVVKKSSGGC(Fluorescein(5-Mal))-NH2),labeling of mouse facial nerve versus surrounding muscle,[3],poor contrast; also recorded: did not perform as well as FAM-NP41
same,nerve to surrounding muscle contrast,"[4]; imaged 2 h post injection, SKH1 mice",5.79±0.81
same,increase in sciatic nerve fluorescence intensity compared to NP41,[4]; mice,2.3 fold
same,signal intensity for in-vivo binding to mouse sciatic nerve compared to FAM-NP41,[4]; mice,2.3 ×
same,fluorescent signal in human autonomic (cavernosal) nerves compared to FAM-NP41,[5],significantly higher fluorescent signal
same,metabolism of peptide detected in urine,[6],partially metabolized
same,stability in human plasma,[7],remain intact; also recorded: stable
same,nerve to muscle contrast,"[8]; human sural nerve vs temporalis muscle, topical 100 μM, n=4",3.03±0.57
same,fluorescent signal intensity of perineurium,"[8]; topical 100 μM, 10 μm unfixed sections, confocal, n=4",1374.44±425.96
same,nerve binding and nerve to muscle contrast (words),[8]; topical 100 μM,highest contrast
same,fluorescent signal intensity compared to FAM-NP41,"[8]; topical 100 μM, human sural nerve",10.9 ×
same,signal for binding human nerve compared to FAM-NP41,"[8]; topical, human nerve",10 fold
same,structures of nerve bound (confocal imaging),[9],binding of peptide to non-axonal structural components of nerve; also recorded: excluded from axons
same,structures of nerve bound (confocal imaging),[9]; listed as FAM-HMP401,"does not bind axons, but preferentially binds the perineurium"
same,structures of nerve bound (confocal imaging),[9]; listed as HNP401-FAM,"binds epineurium, perineurium and endonerium but not axons"
same,fluorescent labeling of rat prostate and sciatic nerve in live rats,[10],highlighted
"Ac-EEPYYVVKKSSGGC [HNP401-N-6, with GGC linker, tested FAM labelled]",normalized average signal intensity for nerve binding,[8],1.0±0.34
"Ac-PWEEPYYVVKKSSGGC [HNP401-N-4, with GGC linker, tested FAM labelled]",normalized average signal intensity for nerve binding,[8],0.56±0.18
"Ac-PYYVVKKSSGGC [HNP401-N-8, with GGC linker, tested FAM labelled]",normalized average signal intensity for nerve binding,[8],0.98±0.31
"Ac-QVPWEEPYYVVKKSSGGC [HNP401-N-2, with GGC linker, tested FAM labelled]","normalized nerve to temporalis muscle contrast, increase with respect to FAM-HNP401",[8]; human sural nerve vs temporalis muscle,3 fold
same,normalized average signal intensity for nerve binding,[8],2.02±0.65
same,"average signal intensity, nerve binding of deletion variants","[8]; topical 100 uM FAM labelled, human nerve sections, n=5",1498.73 (+/−517.63)
"Ac-SGQVPWEEPYYVVGGC [HNP401-C-4, with GGC linker, tested FAM labelled]",effect of truncation on binding and solubility,[8],reduced dramatically
same,normalized average signal intensity for nerve binding,[8],0.49±0.11
"Ac-SGQVPWEEPYYVVKKGGC [HNP401-C-2, with GGC linker, tested FAM labelled]",effect of truncation on binding and solubility,[8],tolerated
SEFPRSWDMETN [HNP301],fluorescent labeling of rat prostate and sciatic nerve in live rats,[10],not showing as much contrast
carboxyfluorescein [reference compound],nerve binding and nerve to muscle contrast (words),[8]; topical 100 μM,only weak non-specific binding
same,nerve binding and nerve to muscle contrast (words),"[8]; topical 100 μM, listed as Carboxyfluorescein",low signal and non-specific binding
